From USRE47689E1, “Compounds for treating spinal muscular atrophy” (PTC Therapeutics, Inc., priority 2011, dated 2019)
Read-outs that look alike come from different tables or passages of the source.

Columns and labels:
[1] = tested on: SMN2 minigene (full length SMN2 minigene mRNA containing SMN2 exon 7); test: SMN2 minigene mRNA splicing RT-qPCR assay in cultured cells; format: cell-based, human; settings: for EC (1.5-fold): Homo sapiens, HEK293-H, read-out: EC1.5x for production of full length SMN2 mRNA
How it was run: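 Read-out: full-length (exon 7-included) SMN2 minigene mRNA by multiplex RT-qPCR with GAPDH, efficiency-corrected (1+E)^−Ct, GAPDH-normalized and divided by vehicle. Stably transfected HEK293H cells, 24 h compound exposure, duplicates per concentration. Value is EC1.5x, reported as star ranges.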

[2] = tested on: Smn protein; test: Smn protein assay in cultured cells (SMN HTRF); format: cell-based, human; settings: for EC1.5x (concentration giving 1.5-fold Smn protein increase): read-out: EC1.5x for Smn protein expression
How it was run: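 Lysates in RIPA with protease inhibitors are incubated overnight at room temperature with HTRF anti-SMN antibodies. EC1.5x is derived from fold increase in ΔF over vehicle.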

[3] = HEK293H cells stably transfected with SMN2-A minigene, 24 hours, 7-point concentration curve, 1.5-fold relative to vehicle-treated cells
[4] = SMA patient fibroblast cells, 48 hours, 7-point concentration data, fold increase relative to vehicle control (SMN HTRF)
[5] = SMA Type 1 patient fibroblast cells (GM03813), 48 hours, 7-point concentration curve, SMN HTRF, concentration producing 1.5 times Smn protein vs DMSO vehicle control

melting point | Structure (SMILES) | EC (1.5-fold) [1, 3] | maximum fold (Fold) increase of Smn protein [2, 4] | EC1.5x for production of full length SMN2 mRNA [1, 3] | EC1.5x (concentration giving 1.5-fold Smn protein increase) [2, 5] | EC (1.5-fold) ([1]; 24 h) | maximum fold (Fold) increase of Smn protein [2] | EC1.5x (concentration giving 1.5-fold Smn protein increase) [2]
246 to 252 °C | Cc1cn2cc(-c3cc4ccc(N5C[C@H]6CCCN[C@H]6C5)cc4oc3=O)nc2c(C)n1 [Compound 781, 3-(6,8-dimethylimidazo[1,2-a]pyrazin-2-yl)-7-[(4aR,7aR)-octahydro-6H-pyrrolo[3,4-b]pyridin-6-yl]-2H-chromen-2-one] | – | ** (fold increase between >1.2 and ≤1.35) | ***** (EC1.5x≤0.1 μM) | – | – | – | –
171 to 173 °C | COc1ccc(-c2cc3ccc(N4CCNCC4)cc3oc2=O)c(OC)c1 [Compound 465, 3-(2,4-dimethoxyphenyl)-7-(piperazin-1-yl)-2H-chromen-2-one] | 3 to 30 µM | * (maximum fold increase of ≤1.2) | – | – | – | – | –
220 °C (dec.) | Cc1cn2cc(-c3cc4ccc(N5CCNCC5)cc4oc3=O)cc2cn1 [Cpd 588, 3-(3-methylpyrrolo[1,2-a]pyrazin-7-yl)-7-(piperazin-1-yl)-2H-chromen-2-one] | < 0.1 µM | ***** (fold increase >1.65) | – | < 300 nM | – | – | –
236 to 242 °C | O=c1oc2cc(N3CCCNCC3)cc(F)c2cc1-c1nc2ccccc2[nH]1 [Compound 374, 3-(1H-benzimidazol-2-yl)-7-(1,4-diazepan-1-yl)-5-fluoro-2H-chromen-2-one] | 1 to 3 µM | * (maximum fold increase of ≤1.2) | – | – | – | – | –
246 to 256 °C | Cc1cc(F)c2nc(-c3cc4ccc(N5CC6CCC5CN6)cc4oc3=O)cn2c1 (centres unmarked) [Compound 600, 7-(2,5-diazabicyclo[2.2.2]oct-2-yl)-3-(8-fluoro-6-methylimidazo[1,2-a]pyridin-2-yl)-2H-chromen-2-one] | < 0.1 µM | ***** (fold increase >1.65) | – | < 300 nM | – | – | –
206 to 210 °C | Cc1cn2cc(-c3cc4ccc(OC5CCN(C(CO)CO)CC5)cc4oc3=O)nc2c(C)n1 [Compound 915, 7-{[1-(1,3-dihydroxypropan-2-yl)piperidin-4-yl]oxy}-3-(6,8-dimethylimidazo[1,2-a]pyrazin-2-yl)-2H-chromen-2-one] | < 0.1 µM | **** (fold increase between >1.5 and ≤1.65) | – | 300 to 1000 nM | – | – | –
182 to 185 °C | Cc1cn2cc(-c3cc4ccc(CCCN5CCC[C@@H]5CO)cc4oc3=O)nc2c(C)n1 [Compound 883, 3-(6,8-dimethylimidazo[1,2-a]pyrazin-2-yl)-7-{3-[(2R)-2-(hydroxymethyl)pyrrolidin-1-yl]propyl}-2H-chromen-2-one] | < 0.1 µM | ***** (fold increase >1.65) | – | < 300 nM | – | – | –
256 to 260 °C | O=c1oc2cc(N3CCNCC3)cc(F)c2cc1-c1nc2ccccc2s1 [Cpd 160, 3-(1,3-benzothiazol-2-yl)-5-fluoro-7-(piperazin-1-yl)-2H-chromen-2-one] | 0.3 to 1 µM | * (maximum fold increase of ≤1.2) | – | – | – | – | –
187 to 190 °C | Cc1cn2cc(-c3cc4ccc(N5CCCNCC5)cc4oc3=O)cc2c(C)n1 [Compound 682, 7-(1,4-diazepan-1-yl)-3-(1,3-dimethylpyrrolo[1,2-a]pyrazin-7-yl)-2H-chromen-2-one] | < 0.1 µM | *** (fold increase between >1.35 and ≤1.5) | – | 1000 to 3000 nM | – | – | –
193 to 198 °C | O=c1oc2cc(N3CCNCC3)cc(F)c2cc1-c1cc(F)cc(F)c1 [Cpd 290, 3-(3,5-difluorophenyl)-5-fluoro-7-(piperazin-1-yl)-2H-chromen-2-one] | 0.3 to 1 µM | * (maximum fold increase of ≤1.2) | – | – | – | – | –
127 to 131 °C | Cc1cn2cc(-c3cc4ccc(N5CCN(C)CC5)cc4oc3=O)cc2c(C)n1 [Compound 644, 3-(1,3-dimethylpyrrolo[1,2-a]pyrazin-7-yl)-7-(4-methylpiperazin-1-yl)-2H-chromen-2-one] | < 0.1 µM | ***** (fold increase >1.65) | – | < 300 nM | – | – | –
209 to 215 °C | CCN1CC[C@@H](Nc2ccc3cc(-c4cn5cc(C)nc(C)c5n4)c(=O)oc3c2)C1 [Compound 731, 3-(6,8-dimethylimidazo[1,2-a]pyrazin-2-yl)-7-{[(3R)-1-ethylpyrrolidin-3-yl]amino}-2H-chromen-2-one] | < 0.1 µM | *** (fold increase between >1.35 and ≤1.5) | – | – | – | – | –
191 to 193 °C | Cc1cn2cc(-c3cc4ccc(CN5CCCCC5)cc4oc3=O)nc2c(C)n1 [Compound 847, 3-(6,8-dimethylimidazo[1,2-a]pyrazin-2-yl)-7-(piperidin-1-ylmethyl)-2H-chromen-2-one] | 1 to 3 µM | ** (fold increase between >1.2 and ≤1.35) | – | – | – | – | –

The next lines start with the compound.

Structure (SMILES) | melting point | EC (1.5-fold) [1, 3] | maximum fold (Fold) increase of Smn protein [2, 4] | EC1.5x for production of full length SMN2 mRNA [1, 3] | EC1.5x (concentration giving 1.5-fold Smn protein increase) [2, 5] | EC (1.5-fold) ([1]; 24 h) | maximum fold (Fold) increase of Smn protein [2] | EC1.5x (concentration giving 1.5-fold Smn protein increase) [2]
Cc1ccn2cc(-c3cc4ccc(O[C@@H]5CCNC5)cc4oc3=O)nc2n1.Cl.Cl [Compound 322, 3-(7-methylimidazo [1,2-a]pyrimidin-2-yl)-7-[(3R)-pyrrolidin-3-yloxy]-2H-chromen-2-one hydrochloride (1:2)] | 292 to 296 °C | 0.3 to 1 µM | ** (fold increase between >1.2 and ≤1.35) | – | – | – | – | –
O=c1oc2cc(N3CCNCC3)c(F)cc2cc1-c1nc2ccccc2s1 [Compound 157, 3-(1,3-benzothiazol-2-yl)-6-fluoro-7-(piperazin-1-yl)-2H-chromen-2-one] | 255 to 260 °C | – | * (maximum fold increase of ≤1.2) | – | – | 0.1 to 0.3 µM | – | –
CCN1CCC(F)(c2ccc3cc(-c4cn5cc(C)nc(C)c5n4)c(=O)oc3c2)CC1 [Cpd 958, 3-(6,8-dimethylimidazo[1,2-a]pyrazin-2-yl)-7-(1-ethyl-4-fluoropiperidin-4-yl)-2H-chromen-2-one] | 162 to 164 °C | – | – | – | – | < 0.1 µM | ***** (key: *: maximum fold increase of ≤1.2; **: fold increase between >1.2 and ≤1.35; ***: fold increase between >1.35 and ≤1.5; ****: fold increase between >1.5 and ≤1.65; *****: fold increase >1.65) | < 300 nM
O=c1oc2cc(N3CCNCC3)ccc2cc1-c1ccncc1 [Compound 27, 7-(piperazin-1-yl)-3-(pyridin-4-yl)-2H-chromen-2-one] | 212 to 214 °C | – | * (maximum fold increase of ≤1.2) | – | – | 1 to 3 µM | – | –
Cc1ccc2nc(-c3cc4ccc(N(C)Cc5cccnc5)cc4oc3=O)cn2c1 [Compound 221, 3-(6-methylimidazo[1,2-a]pyridin-2-yl)-7-[methyl(pyridin-3-ylmethyl)amino]-2H-chromen-2-one] | 220 to 223 °C | 1 to 3 µM | * (maximum fold increase of ≤1.2) | – | – | – | – | –
CCCN1CCN(c2ccc3cc(-c4cc5cc(C)ccn5n4)c(=O)oc3c2)CC1 [Compound 308, 3-(5-methylpyrazolo[1,5-a]pyridin-2-yl)-7-(4-propylpiperazin-1-yl)-2H-chromen-2-one] | 228 to 230 °C | 3 to 30 µM | ** (fold increase between >1.2 and ≤1.35) | – | – | – | – | –
C[C@@H]1CN(c2ccc3cc(-c4nc5ccccc5o4)c(=O)oc3c2)C[C@H](C)N1 [Compound 23, 3-(1,3-benzoxazol-2-yl)-7-[(3R,5S)-3,5-dimethylpiperazin-1-yl]-2H-chromen-2-one] | 230 to 232 °C | 1 to 3 µM | * (maximum fold increase of ≤1.2) | – | – | – | – | –
Cc1cn2cc(-c3cc4ccc(N5CCNCC5)cc4oc3=O)nc2s1 [Compound 96, 3-(2-methylimidazo[2,1-b][1,3]thiazol-6-yl)-7-(piperazin-1-yl)-2H-chromen-2-one] | > 310 °C | 0.1 to 0.3 µM | *** (fold increase between >1.35 and ≤1.5) | – | 3000 to 10000 nM | – | – | –
O=c1oc2cc(N3CCCNCC3)cc(F)c2cc1-c1nc2c(F)cccc2o1 [Compound 368, 7-(1,4-diazepan-1-yl)-5-fluoro-3-(4-fluoro-1,3-benzoxazol-2-yl)-2H-chromen-2-one] | 240 to 245 °C | 0.3 to 1 µM | ** (fold increase between >1.2 and ≤1.35) | – | – | – | – | –
CCN1CCN(c2ccc3cc(-c4cn5cccc(C)c5n4)c(=O)oc3c2)CC1 [Compound 100, 7-(4-ethylpiperazin-1-yl)-3-(8-methylimidazo[1,2-a]pyridin-2-yl)-2H-chromen-2-one] | 211 to 213 °C | 0.3 to 1 µM | ** (fold increase between >1.2 and ≤1.35) | – | – | – | – | –
